Assay results from ChEMBL document CHEMBL1157374, “Lack of an effect of antibiotic treatment on prolonged detection of chlamydial DNA in murine genital tract infection” (2007).
The source made the active and inactive calls. No cut-off for these calls is given here.

Columns and labels:
Chlamydia trachomatis [1] = test: Antimicrobial activity against Chlamydia trachomatis Nigg infected in BALB/c mouse genital tract infection model assessed as recovery of inclusion forming units from cervicovaginal swabs at 3 mg/ml, ip administered on days 10 to 24 days postinfection; type: functional, organism-based
Chlamydia trachomatis [2] = test: Effect on chlamydial plasmid DNA of Chlamydia trachomatis Nigg infected in BALB/c mouse genital tract infection model at 3 mg/ml, ip administered on days 10 to 24 days postinfection by nested PCR; type: functional, organism-based
Chlamydia trachomatis [3] = test: Effect on chlamydial plasmid DNA of Chlamydia trachomatis Nigg infected in BALB/c mouse genital tract infection model at 3 mg/ml, ip administered on days 42 to 56 days postinfection by nested PCR; type: functional, organism-based
Chlamydia trachomatis [4] = test: Antimicrobial activity against Chlamydia trachomatis Nigg infected in BALB/c mouse genital tract infection model assessed as severe oviduct dilation at 3 mg/ml, ip administered on days 42 to 56 days postinfection; type: functional
Chlamydia trachomatis [5] = test: Antimicrobial activity against Chlamydia trachomatis Nigg infected in BALB/c mouse genital tract infection model assessed as severe oviduct dilation at 3 mg/ml, ip administered on days 10 to 24 days postinfection; type: functional
Chlamydia trachomatis [6] = test: Antimicrobial activity against Chlamydia trachomatis Nigg infected in BALB/c mouse genital tract infection model assessed as recovery of inclusion forming units from cervicovaginal swabs at 3 mg/ml, ip administered on days 42 to 56 days postinfection; type: functional, organism-based

## C[C@H]1c2cccc(O)c2C(=O)C2=C(O)[C@]3(O)C(=O)C(C(N)=O)=C(O)[C@@H](N(C)C)[C@@H]3[C@@H](O)[C@@H]21.O [DOXYCYCLINE]
Chlamydia trachomatis [1]
  Activity: Active
Chlamydia trachomatis [2]
  Activity: inactive
Chlamydia trachomatis [3]
  Activity: inactive
Chlamydia trachomatis [4]
  Activity: 80%
Chlamydia trachomatis [5]
  Activity: 30%
Chlamydia trachomatis [6]
  Activity: Active
